Test results published in ChEMBL document CHEMBL5625277, “Systematical mutational analysis of teriparatide on anti-osteoporosis activity by alanine scanning” (Bioorg Med Chem Lett, 2024).

Experiment: Cytotoxicity in pre-osteoblasts (unknown origin) assessed as cell death upto 5 uM by CCK8 assay
Assay type: toxicity, cell-based
Conditions: pre-osteoblast

| Structure (SMILES) | Activity |
| --- | --- |
| CC[C@H](C)[C@H](NC(=O)[C@H](CCC(=O)O)NC(=O)[C@H](CO)NC(=O)[C@@H](NC(=O)[C@H](CO)NC(C)=O)C(C)C)C(=O)N[C@@H](CCC(N)=O)C(=O)N[C@@H](CC(C)C)C(=O)N[C@@H](CCSC)C(=O)N[C@@H](Cc1cnc[nH]1)C(=O)N[C@@H](CC(N)=O)C(=O)N[C@@H](CC(C)C)C(=O)NCC(=O)N[C@@H](CCCCN)C(=O)N[C@@H](Cc1cnc[nH]1)C(=O)N[C@@H](CC(C)C)C(=O)N[C@@H](CC(N)=O)C(=O)N[C@@H](CO)C(=O)N[C@@H](CCSC)C(=O)N[C@@H](CCC(=O)O)C(=O)N[C@@H](CCCNC(=N)N)C(=O)N[C@H](C(=O)N[C@@H](CCC(=O)O)C(=O)N[C@@H](Cc1c[nH]c2ccccc12)C(=O)N[C@@H](CC(C)C)C(=O)N[C@@H](CCCNC(=N)N)C(=O)N[C@@H](CCCCN)C(=O)N[C@@H](CCCCN)C(=O)N[C@@H](CC(C)C)C(=O)N[C@@H](CCC(N)=O)C(=O)N[C@@H](CC(=O)O)C(=O)N[C@H](C(=O)N[C@@H](Cc1cnc[nH]1)C(=O)N[C@@H](CC(N)=O)C(=O)N[C@@H](Cc1ccccc1)C(N)=O)C(C)C)C(C)C | Non-Toxic |
| CC[C@H](C)[C@H](NC(=O)[C@H](CCC(=O)O)NC(=O)[C@H](CO)NC(=O)[C@@H](NC(=O)[C@H](CO)NC(C)=O)C(C)C)C(=O)N[C@@H](CCC(N)=O)C(=O)N[C@@H](CC(C)C)C(=O)N[C@@H](CCSC)C(=O)N[C@@H](Cc1cnc[nH]1)C(=O)N[C@@H](CC(N)=O)C(=O)N[C@@H](CC(C)C)C(=O)NCC(=O)N[C@@H](CCCCN)C(=O)N[C@@H](Cc1cnc[nH]1)C(=O)N[C@@H](CC(C)C)C(=O)N[C@@H](CC(N)=O)C(=O)N[C@@H](CO)C(=O)N[C@@H](CCSC)C(=O)N[C@@H](CCC(=O)O)C(=O)N[C@@H](CCCNC(=N)N)C(=O)N[C@H](C(=O)N[C@@H](CCC(=O)O)C(=O)N[C@@H](Cc1c[nH]c2ccccc12)C(=O)N[C@@H](CC(C)C)C(=O)N[C@@H](CCCNC(=N)N)C(=O)N[C@@H](CCCCN)C(=O)N[C@@H](C)C(=O)N[C@@H](CC(C)C)C(=O)N[C@@H](CCC(N)=O)C(=O)N[C@@H](CC(=O)O)C(=O)N[C@H](C(=O)N[C@@H](Cc1cnc[nH]1)C(=O)N[C@@H](CC(N)=O)C(=O)N[C@@H](Cc1ccccc1)C(N)=O)C(C)C)C(C)C | Non-Toxic |
| CC[C@H](C)[C@H](NC(=O)[C@H](CCC(=O)O)NC(=O)[C@H](CO)NC(=O)[C@@H](NC(=O)[C@H](CO)NC(C)=O)C(C)C)C(=O)N[C@@H](CCC(N)=O)C(=O)N[C@@H](CC(C)C)C(=O)N[C@@H](CCSC)C(=O)N[C@@H](Cc1cnc[nH]1)C(=O)N[C@@H](CC(N)=O)C(=O)N[C@@H](CC(C)C)C(=O)NCC(=O)N[C@@H](CCCCN)C(=O)N[C@@H](C)C(=O)N[C@@H](CC(C)C)C(=O)N[C@@H](CC(N)=O)C(=O)N[C@@H](CO)C(=O)N[C@@H](CCSC)C(=O)N[C@@H](CCC(=O)O)C(=O)N[C@@H](CCCNC(=N)N)C(=O)N[C@H](C(=O)N[C@@H](CCC(=O)O)C(=O)N[C@@H](Cc1c[nH]c2ccccc12)C(=O)N[C@@H](CC(C)C)C(=O)N[C@@H](CCCNC(=N)N)C(=O)N[C@@H](CCCCN)C(=O)N[C@@H](CCCCN)C(=O)N[C@@H](CC(C)C)C(=O)N[C@@H](CCC(N)=O)C(=O)N[C@@H](CC(=O)O)C(=O)N[C@H](C(=O)N[C@@H](Cc1cnc[nH]1)C(=O)N[C@@H](CC(N)=O)C(=O)N[C@@H](Cc1ccccc1)C(N)=O)C(C)C)C(C)C | Non-Toxic |
| CC[C@H](C)[C@H](NC(=O)[C@H](CCC(=O)O)NC(=O)[C@H](CO)NC(=O)[C@@H](NC(=O)[C@H](CO)NC(C)=O)C(C)C)C(=O)N[C@@H](CCC(N)=O)C(=O)N[C@@H](C)C(=O)N[C@@H](CCSC)C(=O)N[C@@H](Cc1cnc[nH]1)C(=O)N[C@@H](CC(N)=O)C(=O)N[C@@H](CC(C)C)C(=O)NCC(=O)N[C@@H](CCCCN)C(=O)N[C@@H](Cc1cnc[nH]1)C(=O)N[C@@H](CC(C)C)C(=O)N[C@@H](CC(N)=O)C(=O)N[C@@H](CO)C(=O)N[C@@H](CCSC)C(=O)N[C@@H](CCC(=O)O)C(=O)N[C@@H](CCCNC(=N)N)C(=O)N[C@H](C(=O)N[C@@H](CCC(=O)O)C(=O)N[C@@H](Cc1c[nH]c2ccccc12)C(=O)N[C@@H](CC(C)C)C(=O)N[C@@H](CCCNC(=N)N)C(=O)N[C@@H](CCCCN)C(=O)N[C@@H](CCCCN)C(=O)N[C@@H](CC(C)C)C(=O)N[C@@H](CCC(N)=O)C(=O)N[C@@H](CC(=O)O)C(=O)N[C@H](C(=O)N[C@@H](Cc1cnc[nH]1)C(=O)N[C@@H](CC(N)=O)C(=O)N[C@@H](Cc1ccccc1)C(N)=O)C(C)C)C(C)C | Non-Toxic |
| CSCC[C@H](NC(=O)[C@H](CC(C)C)NC(=O)[C@H](CCC(N)=O)NC(=O)[C@H](C)NC(=O)[C@H](CCC(=O)O)NC(=O)[C@H](CO)NC(=O)[C@@H](NC(=O)[C@H](CO)NC(C)=O)C(C)C)C(=O)N[C@@H](Cc1cnc[nH]1)C(=O)N[C@@H](CC(N)=O)C(=O)N[C@@H](CC(C)C)C(=O)NCC(=O)N[C@@H](CCCCN)C(=O)N[C@@H](Cc1cnc[nH]1)C(=O)N[C@@H](CC(C)C)C(=O)N[C@@H](CC(N)=O)C(=O)N[C@@H](CO)C(=O)N[C@@H](CCSC)C(=O)N[C@@H](CCC(=O)O)C(=O)N[C@@H](CCCNC(=N)N)C(=O)N[C@H](C(=O)N[C@@H](CCC(=O)O)C(=O)N[C@@H](Cc1c[nH]c2ccccc12)C(=O)N[C@@H](CC(C)C)C(=O)N[C@@H](CCCNC(=N)N)C(=O)N[C@@H](CCCCN)C(=O)N[C@@H](CCCCN)C(=O)N[C@@H](CC(C)C)C(=O)N[C@@H](CCC(N)=O)C(=O)N[C@@H](CC(=O)O)C(=O)N[C@H](C(=O)N[C@@H](Cc1cnc[nH]1)C(=O)N[C@@H](CC(N)=O)C(=O)N[C@@H](Cc1ccccc1)C(N)=O)C(C)C)C(C)C | Non-Toxic |
| CC[C@H](C)[C@H](NC(=O)[C@H](CCC(=O)O)NC(=O)[C@H](CO)NC(=O)[C@@H](NC(=O)[C@H](CO)NC(C)=O)C(C)C)C(=O)N[C@@H](CCC(N)=O)C(=O)N[C@@H](CC(C)C)C(=O)N[C@@H](CCSC)C(=O)N[C@@H](Cc1cnc[nH]1)C(=O)N[C@@H](CC(N)=O)C(=O)N[C@@H](CC(C)C)C(=O)NCC(=O)N[C@@H](CCCCN)C(=O)N[C@@H](Cc1cnc[nH]1)C(=O)N[C@@H](CC(C)C)C(=O)N[C@@H](C)C(=O)N[C@@H](CO)C(=O)N[C@@H](CCSC)C(=O)N[C@@H](CCC(=O)O)C(=O)N[C@@H](CCCNC(=N)N)C(=O)N[C@H](C(=O)N[C@@H](CCC(=O)O)C(=O)N[C@@H](Cc1c[nH]c2ccccc12)C(=O)N[C@@H](CC(C)C)C(=O)N[C@@H](CCCNC(=N)N)C(=O)N[C@@H](CCCCN)C(=O)N[C@@H](CCCCN)C(=O)N[C@@H](CC(C)C)C(=O)N[C@@H](CCC(N)=O)C(=O)N[C@@H](CC(=O)O)C(=O)N[C@H](C(=O)N[C@@H](Cc1cnc[nH]1)C(=O)N[C@@H](CC(N)=O)C(=O)N[C@@H](Cc1ccccc1)C(N)=O)C(C)C)C(C)C | Non-Toxic |
